In the test the test system is FRDA fibroblasts. The test is described as follows: Rescue of BSO-stressed human dermal fibroblasts from Friedreich's Ataxia patients (Calcein AM viability). In kind it is cell-based. How it is done:
An initial screen was performed to identify compounds effective for the amelioration of redox disorders. Test samples, 4 reference compounds (idebenone, decylubiquinone, Trolox and alpha-tocopherol), and solvent controls were tested for their ability to rescue FRDA fibroblasts stressed by addition of L-buthionine-(S,R)-sulfoximine (BSO), as described in Jauslin et al., Hum. Mol. Genet. 11(24):3055 (2002), Jauslin et al., FASEB J. 17:1972-4 (2003), and International Patent Application WO 2004/003565. […] This specific BSO-mediated cell death can be prevented by administration of antioxidants or molecules involved in the antioxidant pathway, such as alpha-tocopherol, selenium, or small molecule glutathione peroxidase mimetics. However, antioxidants differ in their potency, i.e. the concentration at which they are able to rescue BSO-stressed FRDA fibroblasts.
MEM (a medium enriched in amino acids and vitamins, catalog no. 1-31F24-I) and Medium 199 (M199, catalog no. 1-21F22-I) with Earle's Balanced Salts, without phenol red, were purchased from Bioconcept. Fetal Calf Serum was obtained from PAA Laboratories. Basic fibroblast growth factor and epidermal growth factor were purchased from PeproTech. Penicillin-streptomycin-glutamine mix, L-buthionine (S,R)-sulfoximine, (+)-alpha-tocopherol, decylubiquinone, and insulin from bovine pancreas were purchased from Sigma. Trolox (6-Hydroxy-2,5,7,8-tetramethylchromane-2-carboxylic acid) was obtained from Fluka. Idebenone was obtained from Chemo Iberica. Calcein AM was purchased from Anaspec. Cell culture medium was made by combining 125 ml M199 EBS, 50 ml Fetal Calf Serum, 100 U/ml penicillin, 100 microgram/ml streptomycin, 2 mM glutamine, 10 microgram/ml insulin, 10 ng/ml EGF, and 10 ng/ml bFGF; MEM EBS was added to make the volume up to 500 ml. A 10 mM BSO solution was prepared by dissolving 444 mg BSO in 200 ml of medium (Invitrogen, Carlsbad, Ca.) with subsequent filter-sterilization. During the course of the experiments, this solution was stored at +4° C. The cells were obtained from the Coriell Cell Repositories (Camden, N.J.; repository number GM04078) and grown in 10 cm tissue culture plates. Every third day, they were split at a 1:3 ratio.
The test samples were supplied in 1.5 ml glass vials. The compounds were diluted with DMSO, ethanol or PBS to result in a 5 mM stock solution. Once dissolved, they were stored at −20° C. Reference antioxidants (idebenone, decylubiquinone, alpha-tocopherol and Trolox) were dissolved in DMSO.
Test samples were screened according to the following protocol:
A culture with FRDA fibroblasts was started from a 1 ml vial with approximately 500,000 cells stored in liquid nitrogen. Cells were propagated in 10 cm cell culture dishes by splitting every third day in a ratio of 1:3 until nine plates were available. Once confluent, fibroblasts were harvested. For 54 micro titer plates (96 well-MTP) a total of 14.3 million cells (passage eight) were re-suspended in 480 ml medium, corresponding to 100 microliters medium with 3,000 cells/well. The remaining cells were distributed in 10 cm cell culture plates (500,000 cells/plate) for propagation. The plates were incubated overnight at 37° C. in a atmosphere with 95% humidity and 5% CO2 to allow attachment of the cells to the culture plate.
10% DMSO (242.5 microliters) was added to a well of the microtiter plate. The test compounds were unfrozen, and 7.5 microliters of a 5 mM stock solution was dissolved in the well containing 242.5 microliters of 10% DMSO, resulting in a 150 micromolar master solution. Serial dilutions from the master solution were made. The period between the single dilution steps was kept as short as possible (generally less than 30 seconds). At least 4 hours after attachment into MTP, cells were then treated with the various compound dilutions.
Plates were kept overnight in the cell culture incubator. […]

Where [1] appears, read: Homo sapiens, GM04078, 48 h, read-out: Ec50 Average.
The mark [2] stands for this setting: Homo sapiens, compounds of the invention, FRDA fibroblasts (GM04078), 1 mM BSO, 48 h, tested three times, read-out: Ec50 Average.

Structures are written as SMILES. Read-outs that look alike come from different tables or passages of the source.

On to `O=c1ccc2nc3ccc(OCc4ccccc4)cc3oc-2c1` [Compound 1], for which, under setting [1], the concentration giving a half-maximal response (EC50) was 1 nM.

Turning to `COc1ccc2nc3ccc(=O)cc-3oc2c1` [Compound 3], the EC50 under setting [1] is 1 nM.

Take `O=c1ccc2nc3ccc(O)cc3oc-2c1` [Compound 4]: the EC50 under setting [1] was 84 nM.

Regarding `CCOc1ccc2nc3ccc(=O)cc-3oc2c1` [Compound 5], the EC50 under setting [1] is 0.8 nM.

On to `COc1c2nc3ccc(C)cc3oc-2c(C)c(=O)c1OC` [Compound 6], for which, under setting [2], the EC50 was 2 nM.

`COCCN(C)C(=O)c1ccc2nc3c(C)c(C)c(=O)c(C)c-3oc2c1` [Compound 7]: the EC50 under setting [2] was 2 nM.

With `Cc1c2nc3ccc(C(=O)NCCN4CCOCC4)cc3oc-2c(C)c(=O)c1C` [Compound 8], the EC50 under setting [2] is 3 nM.

On to `Cc1ccc2nc3c(C)c(C)c(=O)c(C)c-3oc2c1C` [Compound 9], for which the EC50 under setting [2] was 4 nM.

As for `Cc1c2nc3ccc(C(=O)NCCCO)cc3oc-2c(C)c(=O)c1C` [Compound 10], under setting [2], the EC50 was 5 nM.

For the compound `Cc1ccc2nc3c(C)c(C)c(=O)c(C)c-3oc2c1` [Compound 11], under setting [2], the EC50 was 5 nM.

With `COCCNC(=O)c1ccc2nc3c(C)c(C)c(=O)c(C)c-3oc2c1` [Compound 12], the EC50 under setting [2] was 6 nM.

As to `COc1ccc2nc3c(OC)c(OC)c(=O)c(C)c-3oc2c1` [Compound 13], under setting [2], the EC50 was 12 nM.

Take `O=c1ccc2nc3ccc(O[C@@H]4O[C@H](CO)[C@H](O)[C@H](O)[C@H]4O)cc3oc-2c1` [Compound 14]: under setting [2], the EC50 was 16 nM.

With `COCCOCCOCCOCCNC(=O)c1ccc2nc3c(C)c(C)c(=O)c(C)c-3oc2c1` [Compound 15], the EC50 under setting [2] is 17 nM.

Turning to `Cc1c2nc3ccc(C(F)(F)F)cc3oc-2c(C)c(=O)c1C` [Compound 17], the EC50 under setting [2] was 23 nM.

For `Cc1c2nc3ccc(C(=O)NCCc4ccccc4)cc3oc-2c(C)c(=O)c1C` [Compound 19], under setting [2], the EC50 is 25 nM.

For `Cc1cc(C)c2nc3c(C)c(C)c(=O)c(C)c-3oc2c1` [Compound 20], under setting [2], the EC50 is 26 nM.

For the compound `COC(=O)c1ccc2nc3c(C)c(C)c(=O)c(C)c-3oc2c1` [Compound 21], the EC50 under setting [2] was 50 nM.

In the case of `Cc1c2nc3cc(C(F)(F)F)ccc3oc-2c(C)c(=O)c1C` [Compound 22], the EC50 under setting [2] is 54 nM.

`Cc1cc2oc3c(C)c(=O)c(C)c(C)c-3nc2cc1S(C)(=O)=O` [Compound 23]: under setting [2], the EC50 is 234 nM.

As to `Cc1c(C)c2c(c(C)c1O)CC[C@@](C)(CCC[C@H](C)CCC[C@H](C)CCCC(C)C)O2` [alpha-tocopherol, reference compound], the EC50 is 300 nM (control compounds, FRDA fibroblasts (GM04078), 1 mM BSO, 48 h, average of three values, read-out: EC50 Average); 400 nM (control compounds, FRDA fibroblasts (GM04078), 1 mM BSO, 48 h, first of three experiments, read-out: EC50 Value 1); 150 nM (control compounds, FRDA fibroblasts (GM04078), 1 mM BSO, 48 h, second of three experiments, read-out: EC50 Value 2); 350 nM (control compounds, FRDA fibroblasts (GM04078), 1 mM BSO, 48 h, third of three experiments, read-out: EC50 Value 3).

The values above are taken from patent publication US9670170B2, “Resorufin derivatives for treatment of oxidative stress disorders” (BioElectron Technology Corporation, priority 2013, dated 2017).
